From paper PMC6438990 (Cellular and Molecular Gastroenterology and Hepatology, 2019)

Molecular target: T1, SLC26A3 (DRA, down-regulated in adenoma) (Homo sapiens, UniProt P40879)
T1 sequence (P40879 1-764): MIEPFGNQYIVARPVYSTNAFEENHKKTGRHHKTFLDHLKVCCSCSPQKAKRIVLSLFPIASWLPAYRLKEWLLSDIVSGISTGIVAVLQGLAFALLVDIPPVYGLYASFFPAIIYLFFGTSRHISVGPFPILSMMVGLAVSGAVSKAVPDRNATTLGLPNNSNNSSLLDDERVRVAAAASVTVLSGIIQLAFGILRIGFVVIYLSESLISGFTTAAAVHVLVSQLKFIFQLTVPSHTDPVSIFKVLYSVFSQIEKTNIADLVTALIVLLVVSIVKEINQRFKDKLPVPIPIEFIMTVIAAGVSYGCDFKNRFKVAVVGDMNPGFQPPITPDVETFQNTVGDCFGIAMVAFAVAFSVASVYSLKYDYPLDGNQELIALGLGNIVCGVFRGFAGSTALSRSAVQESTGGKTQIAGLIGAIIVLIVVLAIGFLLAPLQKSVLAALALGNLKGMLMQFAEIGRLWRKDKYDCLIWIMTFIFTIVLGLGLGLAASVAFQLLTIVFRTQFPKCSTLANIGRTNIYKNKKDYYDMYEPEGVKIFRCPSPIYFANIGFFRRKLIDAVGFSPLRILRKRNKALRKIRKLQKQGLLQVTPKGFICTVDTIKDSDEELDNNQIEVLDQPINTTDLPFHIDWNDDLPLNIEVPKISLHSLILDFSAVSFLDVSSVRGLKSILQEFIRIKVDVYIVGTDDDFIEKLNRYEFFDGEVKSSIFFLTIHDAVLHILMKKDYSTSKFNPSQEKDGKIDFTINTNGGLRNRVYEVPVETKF
Type: cell-based

- IC50: 120 ± 40 nM
SMILES: Cc1c(CC(=O)O)c(=O)oc2c(C)c(OCc3cccc(Br)c3)ccc12 [DRAinh-A250]
